Each structure is given as a SMILES string. Where “and” joins values, the source holds several entries; their conditions need not be identical. Equal entries are not always repeated.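 Briefly, cells in 96-well plates were exposed to five compound concentrations for 48 h, and endpoints were estimated by linear interpolation. At the GI50, growth is halved. TGI marks complete inhibition of growth.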 Bounds are passed on as bounds.

Common to all, as to assay: DTP human tumour cell line panel, 48 h
The test system of test [1] is HCT-116 colon.
The test system of test [2] is HT29 colon.
The subject of test [3] is MCF7 breast.
The test system of test [4] is NCI-H23 lung.
In test [5] the test system is NCI/ADR-RES ovarian.
In test [6] the test system is OVCAR-8 ovarian.
The test system of test [7] is SF-539 CNS.
For test [8], the system named is UO-31 renal.
In test [9] the test system is SF-268 CNS.
Test [10] has as its system SK-MEL-28 melanoma.

Take `N[C@H]1CCN(c2c(F)cc3c(=O)c(C(=O)O)cn4c3c2Oc2cc3c(ccc5ccccc53)cc2-4)C1`: the concentration for total growth inhibition (TGI) (in general, the concentration giving total growth inhibition) in test [1] was greater than 100 µM; in test [2] it was 7.34 µM; in test [3] it was greater than 100 µM; in test [4], greater than 100 µM; in test [5], greater than 100 µM; in test [6] it was greater than 100 µM. The TGI in [7] was 10.6 µM; in [8] it was greater than 100 µM.

As for `NCCNc1nc(N2CCCC2)c2nc(Cl)c(NCc3ccccc3)nc2n1`, the TGI in [1] was 2.93 µM; in test [2], 5.46 µM; in [3], 3.31 µM; in test [4], 5.46 µM; in [5], 33.1 µM; in [9], 3.81 µM. Also, the results for the concentration for total growth inhibition (TGI) in [7], in [10] and in test [8] were 3.79 µM, 3.39 µM and 3.32 µM, respectively.

For `O=C(O)C(CSC(c1ccccc1)(c1ccccc1)c1ccccc1)N=Cc1cccs1` (centres undefined), the total growth inhibition concentration (TGI) in [1] was greater than 56.2 µM; in [2], 18.6 µM; in test [3], greater than 56 µM; in [4], 43.3 µM; in test [5] it was 63.8 µM; in [6], 42.3 µM. Besides, the total growth inhibition concentration (TGI) is greater than 40.2 µM in test [9], 9.21 µM in test [7], greater than 100 µM in [10] and greater than 100 µM in [8].

As for `CC(Sc1ccccc1)C(CO)(CO)[N+](=O)[O-]` (centres undefined), the TGI worked out at 31.6 µM in [1]; 32.9 µM in test [2]; 33.3 µM in [4]; 28.7 µM in test [6]; 46.5 µM in test [9]; 31 µM in test [7]. For the same molecule, in test [8], the TGI came out at 22.6 µM.

For `Nc1ccccc1N/C(=C\C(=O)C(Cl)(Cl)Cl)c1ccccc1`, the concentration for total growth inhibition (TGI) in test [1] is 38.2 µM; in test [2] it was greater than 100 µM; in [3], 83.4 µM; in test [4], greater than 100 µM; in [5], greater than 100 µM; in test [6], greater than 100 µM. Moreover, the TGI was 70.4 µM in test [9], 36.1 µM in test [7], greater than 100 µM in test [10] and 39 µM in test [8].

With `CC[C@@]1(O)C(=O)OCc2c1cc1n(c2=O)Cc2c-1nc1ccc(O)cc1c2CC[Si](C)(C)C`, the TGI in test [4] was 0.0103 µM and 0.0118 µM; in [5], 1.84 µM and 1.56 µM; in test [6], 0.197 µM; in test [10] it was greater than 100 µM; in test [8], 0.123 µM and 0.0795 µM. Further, in [10], the 50% growth inhibitory concentration (GI50) (usually the concentration at which growth is held to half of that of the control) is 0.107 µM.

For the molecule `O=C(CCN1CC2CCC(CC2)C1)c1cccs1`, the concentration for total growth inhibition (TGI) in test [1] was 42 µM; in test [2] it was 61.6 µM; in [3] it was 29.4 µM; in test [4] it was 36.7 µM; in test [5] it was 62.1 µM; in [6], 42.4 µM. In addition, the TGI in [9] was found to be 44.3 µM; in [7] it was 39.2 µM; in test [10], 32.5 µM; in test [8] it was 23.9 µM.

Turning to `COc1ccc(N=C2C(=O)C3=C(OC(C)(C)CC3)c3ccccc32)cc1`, the TGI was found to be 1.48 µM in test [1]; 1.57 µM in [2]; 1.87 µM in [3]; 13 µM in test [4]; 16.7 µM in [5]; 8.37 µM in test [6]. In addition, the TGI in [9] is 10.7 µM; in test [7], 0.806 µM; in test [10], 2.48 µM; in test [8] it was 1.69 µM.

Turning to `CN1C2CCC1C(C(O)c1ccccc1[N+](=O)[O-])C(=O)C2` (centres undefined), the total growth inhibition concentration (TGI) was greater than 100 µM in test [1]; greater than 100 µM in test [2]; greater than 100 µM in [3]; greater than 100 µM in test [4]; 91.9 µM in test [5]; greater than 100 µM in test [6]. For the same molecule, the TGI in test [9] was greater than 100 µM; in [7], 80.4 µM; in test [10] it was greater than 100 µM; in test [8] it was greater than 100 µM.

In the case of `COC(=O)C1C(C)N1C` (centres undefined), the TGI in test [2], in test [4], in test [6], in [7] and in [10] was greater than 100 µM each time.

In the case of `N#CC(c1ccccc1)N1CCCN(C(C#N)c2ccccc2)C1c1ccccc1O` (centres undefined), the TGI in test [1], in test [2], in test [3], in [4], in [5] and in test [6] was greater than 100 µM in each case. The concentration for total growth inhibition (TGI) in [9], in [7], in test [10] and in test [8] was greater than 100 µM in each case.

With `CC(=O)N(C)c1ccc2c(ccc[n+]2[O-])c1[N+](=O)[O-]`, the TGI in test [1], in test [2], in test [4], in test [6], in [9] and in [7] was greater than 100 µM in each case. Also, the total growth inhibition concentration (TGI) in test [10] and in test [8] was greater than 100 µM throughout.

Take `O=[n+]1c2c(n([O-])c3ccccc31)-c1cccc3cccc-2c13`: the TGI in test [1], in [2], in [3], in test [4], in [5] and in test [6] was greater than 100 µM in each case. In addition, the TGI in test [9] and in test [8] was greater than 100 µM in each case.

As to `Nc1ccc2c(c1)C(=O)N(O)C2=O`, the TGI in test [1], in test [2], in test [4], in test [9], in [7] and in test [10] was greater than 100 µM in each case. Moreover, the concentration for total growth inhibition (TGI) in [8] was greater than 100 µM.

With `CN(C)CCn1c(=O)c2ccc3c4c(nn3CCN(C)C)c3cc(N)ccc3n(c1=O)c24`, the concentration for total growth inhibition (TGI) in [1] was 0.0716 µM; in test [3] it was 1.17 µM; in test [4] it was 0.021 µM; in test [5], 0.749 µM; in [6] it was 0.454 µM; in test [9], 0.221 µM. Also, the TGI worked out at 0.579 µM in [7], 0.394 µM in test [10] and 0.0501 µM in [8].

For the molecule `C[C@]12CC[C@@H]3c4ccccc4CC[C@H]3[C@@H]1CC[C@@H]2O`, the TGI in test [1], in test [4], in [6], in [9], in [7] and in [10] was greater than 100 µM in each case. The total growth inhibition concentration (TGI) in test [8] is greater than 100 µM.

These data come from PubChem BioAssay (NCI).
